Key:
cells [1] = assay: cells
Description: Inhibition of caspase-like activity of 20S proteasome beta 1 subunit by cell based assay

cells [2] = assay: cells; remark: listed apart in the source
Description: Inhibition of trypsin-like activity of 20S proteasome beta 2 subunit by cell based assay

[3] = Metabolic stability in human plasma assessed as half life after 360 mins; type: ADME, cell-free

Compound	IC50 (cells [1])	IC50 (cells [2])	half-life [3]
COC(=O)/C=C/[C@H](CC(C)C)NC(=O)CC[C@@H]1NC(=O)[C@H](CC(C)C)NC(=O)[C@H](CC(C)C)C(=O)NC(=O)[C@H](CO)NC1=O	91 nM	6940 nM	> 6 h
COC(=O)/C=C/[C@H](CC(C)C)NC(=O)CC[C@@H]1NC(=O)[C@H](CC(C)C)NC(=O)[C@H](CC(C)C)C(=O)NC(=O)[C@H](C)NC1=O	123 nM		> 6 h
COC(=O)/C=C/[C@H](CC(C)C)NC(=O)CC[C@@H]1NC(=O)[C@H](CC(C)C)NC(=O)[C@H](CC(C)C)C(=O)NC(=O)[C@H](C(C)C)NC1=O	273 nM		> 6 h
COC(=O)/C=C/[C@H](CC(C)C)NC(=O)CC[C@H](NC(=O)[C@H](CC(C)C)NC(=O)[C@H](CC(C)C)C(=O)NC(=O)[C@@H](N)C(C)C)C(N)=O			1.96 h
COC(=O)/C=C/[C@H](CC(C)C)NC(=O)CC[C@H](NC(=O)[C@H](CC(C)C)NC(=O)[C@H](CC(C)C)C(=O)NC(=O)[C@@H](N)CO)C(N)=O			1.43 h
COC(=O)/C=C/[C@H](CC(C)C)NC(=O)CC[C@@H]1NC(=O)[C@H](CC(C)C)NC(=O)[C@H](CC(C)C)C(=O)NC(=O)CNC1=O	221 nM	5830 nM	> 6 h
COC(=O)/C=C/[C@H](CC(C)C)NC(=O)CC[C@H](NC(=O)[C@H](CC(C)C)NC(=O)[C@H](CC(C)C)C(=O)NC(=O)CN)C(N)=O			0.808 h
COC(=O)/C=C/[C@H](CC(C)C)NC(=O)CC[C@H](NC(=O)[C@H](CC(C)C)NC(=O)[C@H](CC(C)C)C(=O)NC(=O)[C@H](C)N)C(N)=O			1.22 h

Source: ChEMBL document CHEMBL1153334, “New cyclic peptide proteasome inhibitors” (Bioorg Med Chem Lett, 2009)
